Source: article PMC12314892, “Macrocyclic Phage Display for Identification of Selective Protease Substrates” (Journal of the American Chemical Society, 2025)
Where a SMILES comes first, the peptide text is derived from it. The star is where a group is joined. AMC = Cc1cc(=O)oc2cc(N*)ccc12

Molecular target: T1, Recombinant Human DPP9 (Homo sapiens, UniProt Q86TI2)
T1 construct: purchased R&D Systems 5419-SE-010
Experiment: Fluorogenic substrate cleavage assay
Type: biochemical
Conditions: Supplementary figure 11; 200 μM, 1 hour at 37°C; 2 nM DPP4 vs 6 nM DPP9; RFU/min
Method: Fluorogenic Substrate Cleavage Assay
The following proteases were used for the activity assay: Recombinant Human FAPα Protein, CF (R&D Systems, Catalog No.: 3715-SE-010), Recombinant Human Prolyl Oligopeptidase/PREP Protein, CF (R&D Systems, Catalog No.: 4308-SE-010). Recombinant Human DPP9 Protein, CF (R&D Systems, Catalog No.: 5419-SE-010). Recombinant Human DPP4 Protein (Sino Biological, Catalog No.: 10688-HNCH-10). The buffers used for the activity assay were: FAPα - 50 mM Tris, 1 M NaCl, 1 mg/mL BSA, pH 7.5, PREP- 25 mM Tris, 250 mM NaCl, 2.5 mM DTT, pH 7.5 (DTT was freshly added immediately before use), DPP9- 25 mM Tris, pH 7.5, DPP4- 25 mM Tris, pH
7.5. The following commercial substrates were used: zGP-AMC (Bachem,Catalog No.: […]
conducted in Greiner Bio-One black microplates of 384 wells and polystyrene F-bottom (Catalog No.: 784076). All compounds were dissolved in DMSO at a concentration of 10 mM and then diluted into the respective buffer to the desired final concentration. The protease was added to the specified concentration before the fluorescence measurements. For fluorescence measurements, 2 μL of substrate was further diluted into 6 μL of buffer, followed by addition of 2 μL of enzyme in buffer. For no enzyme controls 2 μL of substrate was diluted into 8 μL of buffer.
The fluorescence was measured using a Cytation 3 plate reader (BioTek). All experiments have at least three technical replicates. All assays were conducted at 37°C for a minimum of 90 min, unless otherwise noted. Fluorescence measurements were performed at ex/em, 355/460 nm for ACC substrates. The substrates velocity was quantified by calculating the slope of the linear phase of the reaction as relative fluorescence units (RFU) per min. […]

T1 sequence (Q86TI2 whole entry): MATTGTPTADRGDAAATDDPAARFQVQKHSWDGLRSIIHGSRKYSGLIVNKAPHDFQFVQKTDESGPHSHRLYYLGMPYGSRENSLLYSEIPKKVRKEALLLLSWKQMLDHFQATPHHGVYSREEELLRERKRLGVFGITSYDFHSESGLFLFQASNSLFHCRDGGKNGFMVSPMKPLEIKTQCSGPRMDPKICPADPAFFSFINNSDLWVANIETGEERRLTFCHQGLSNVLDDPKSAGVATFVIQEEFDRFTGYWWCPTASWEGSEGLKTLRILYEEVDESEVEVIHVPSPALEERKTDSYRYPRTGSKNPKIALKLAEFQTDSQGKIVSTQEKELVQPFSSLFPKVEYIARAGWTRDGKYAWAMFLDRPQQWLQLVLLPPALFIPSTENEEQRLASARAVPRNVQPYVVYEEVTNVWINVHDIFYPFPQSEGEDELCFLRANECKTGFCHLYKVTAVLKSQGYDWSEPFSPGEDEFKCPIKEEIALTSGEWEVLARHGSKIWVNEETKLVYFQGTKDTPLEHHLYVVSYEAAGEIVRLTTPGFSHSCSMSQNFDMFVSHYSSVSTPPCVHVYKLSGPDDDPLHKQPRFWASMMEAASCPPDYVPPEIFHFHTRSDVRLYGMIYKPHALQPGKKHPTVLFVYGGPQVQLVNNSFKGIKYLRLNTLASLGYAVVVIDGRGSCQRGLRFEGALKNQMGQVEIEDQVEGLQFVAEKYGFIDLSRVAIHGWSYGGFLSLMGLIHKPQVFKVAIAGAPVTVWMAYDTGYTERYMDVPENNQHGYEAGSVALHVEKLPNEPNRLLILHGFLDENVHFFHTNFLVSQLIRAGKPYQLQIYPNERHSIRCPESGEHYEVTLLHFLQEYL

Cc1cc(=O)oc2cc(NC(=O)[C@@H]3CCCN3C(=O)CN)ccc12 [GP-AMC] (H-Gly-Pro-{AMC})
selectivity for DPP4 (vs DPP9): 11 fold
